Laboratory results as given in US5366981A, “N-acyl-substituted azacyclic compounds, processes for their preparaion, and their use as pharmaceuticals” (Dr Lo Zambeletti S.p.A., priority 1989, dated 1994).
Structures can show the parent of a compound that is named as a salt.

Legend:
[1] = test system: mice; experiment: P-phenylquinone-induced abdominal writhing test in mice; assay type: in vivo, Male Charles River mice (Swiss Strain); details: Mus musculus, sc, 20 min; s.c.; 20 min pretreatment; p-phenylquinone 2 mg/Kg i.p.; graded protection; read-out: ANALGESIA MOUSE WRITHING ED50
Experimental: A) P-phenylquinone-induced abdominal writhing test in mice
The methodology employed is based on that described by Sigmund et al, Proc. Soc. Exptl. Biol. 95, 729/1957, modified by Milne and Twomey, Agents and Actions, 10, 31/1980.
Male Charles River mice (Swiss Strain), 25-36 g body weight, were used. Animals were allowed food and water ad libitum and were randomized into groups of 10 prior to experimentation. Test compounds were dissolved in either distilled water or distilled water plus 0.1M AMS, and administered by the subcutaneous route in a final volume of 10 ml/Kg. Control animals received 10 ml/Kg of the appropriate vehicle alone. Following a pretreatment period of 20 min., mice were injected intraperitoneally with p-phenylquinone, 2 mg/Kg at 37° C. in a final volume of […]. […] During this period the number of abdominal writhing responses per animal were recorded where writhing consists of an intermittent contraction of the abdomen associated with hind leg extension.
The degree of antinociceptive protection afforded by the test compound was determined as the mean number of writhing responses observed in the treated group (T) expressed as a percentage of the mean number of writhing responses in the control group (C) according to the following formula:
[1-(T/C]×100%=% graded protection

[2] = test system: mice; experiment: Tail-flick test in mice; assay type: in vivo, Male Charles River mice (Swiss Strain); details: Mus musculus, sc, 0.5 h; s.c.; 30 min pretreatment; quantal protection (reaction time doubled); read-out: ANALGESIA MOUSE TAIL-FLICK ED50
Experimental: B) Tail-flick test in mice
The methodology employed is based on that described by D'Amour and Smith, J. Pharmacol. Exp. Ther. 72, 74/1941.
Male Charles River mice (Swiss Strain), 22-34 g body weight were used. Animals were allowed food and water ad libitum and were randomized into groups of 10 prior to experimentation.
Test compounds were dissolved in either distilled water or distilled water plus 0.1M AMS and administered by the subcutaneous route in a final volume of 10 ml/Kg. Control animals received 10 ml/kg of the appropriate vehicle alone. Following a pretreatment period of 30 min., the mice were again placed under the heat source and the reaction tine re-determined.
Percentage quantal protection was determined as the number of mice in which the reaction time was doubled compared to pretreatment values, expressed as a percentage of the total number of mice in the group.

SMILES	ED50 [1] [mg/kg]	ED50 [2] [mg/kg]
CC1(C)CCCN(C(=O)Cc2ccc3c(c2)CCCC3)C1CN1CC=CC1 (centres unmarked) [Example 4, 1-(5,6,7,8-tetrahydronapht-2-yl)acetyl-2-(3-pyrrolin-1-yl) methyl-3,3-dimethyl piperidine hydrochloride]	0.025	0.193
CC1(C)CCCN(C(=O)Cc2ccc(C(F)(F)F)cc2)C1CN1CC=CC1 (centres unmarked) [Example 3, 1-(4-trifluoromethylphenyl)acetyl-2-(3-pyrrolin-1-yl)methyl-3,3-dimethyl piperidine hydrochloride]	0.006	0.015
O=C(Cc1ccc(Cl)c(Cl)c1)N1CCc2sccc2C1CN1CC=CC1 (centres unmarked) [Example 7, 4-(3-pyrrolin-1-yl)methyl-5-(3,4-dichlorophenyl)acetyl-4,5,6,7-tetrahydrothieno[3,2-c]pyridine hydrochloride hemihydrate]	0.002	0.008
CC1(C)CN(C(=O)Cc2ccc(Cl)c(Cl)c2)C(CN2CC=CC2)c2ccccc21 (centres unmarked) [Example 6, 1-(3-pyrrolin-1-yl)methyl-2-(3,4-dichlorophenyl)acetyl-4,4-dimethyl-1,2,3,4-tetrahydroisoquinoline hydrochloride]	0.047	0.275
O=C(Cc1ccc(Cl)c(Cl)c1)N1CCCC[C@H]1CN1CC=CC1 [Example 1, (2S)-1-(3,4-dichlorophenyl)acetyl-2-(3-pyrrolin-1-yl)methyl piperidine hydrochloride]	0.005	0.045
CC1(C)CCCN(C(=O)Cc2ccc3c(c2)CCCC3=O)C1CN1CC=CC1 (centres unmarked) [Example 10, 1-[1-oxo-3,4-dihydro-(2H)-napht-6-yl]acetyl-2-(3-pyrrolin-1-yl)methyl-3,3-dimethyl piperidine hydrochloride]	0.053	0.594
O=C1CCCc2cc(CC(=O)N3CCCC[C@H]3CN3CC=CC3)ccc21 [Example 9, (2S)-1-[1-oxo-3,4-dihydro-(2H)-napht-6-yl]acetyl-2-(3-pyrrolin-1-yl)methyl piperidine hydrochloride]	0.023	0.316
O=C(Cc1ccc(Cl)c(Cl)c1)N1CCc2ccccc2C1CN1CC=CC1 (centres unmarked) [Example 5, 1-(3-pyrrolin-1-yl)methyl-2-(3,4-dichlorophenyl)acetyl-1,2,3,4-tetrahydroisoquinoline hydrochloride]	0.005	0.015
CC1(C)CN(C(=O)Cc2ccc(Cl)c(Cl)c2)C(CN2CC=CC2)c2ccsc21.Cl (centres unmarked) [Example 8, 4-(3-pyrrolin-1-yl)methyl-5-(3,4-dichlorophenyl)acetyl-7,7-dimethyl-4,5,6,7-tetrahydrothieno[3,2-c]pyridine hydrochloride]	0.04	0.55
CC1(C)CCCN(C(=O)Cc2ccc(Cl)c(Cl)c2)C1CN1CC=CC1 (centres unmarked) [Example 2, 1-(3,4-dichlorophenyl)acetyl-2-(3-pyrrolin-1-yl)methyl-3,3-dimethyl piperidine hydrochloride]	0.006	0.021
